Test system: soybean powdery mildew (Microsphaera diffusa)
Assay: Test Example 13: control test against soybean powdery mildew, foliar spray after inoculation
Assay type: in vivo
Conditions: 200 ppm foliar spray 2 days after inoculation; soybean cv Kurosengoku

With CCS(=O)(=O)n1ccc(-c2ccc(Cl)c([N+](=O)[O-])c2)n1 [compound 36] the “lesion area compared to the lesion area in an untreated soybean” value was ≤ 30%.
